# In US9751853B2, “Solid forms of 3-(5-amino-2-methyl-4-oxo-4H-quinazolin-3-yl)-piperidine-2,6-dione, and their pharmaceutical compositions and uses” (Celgene Corporation, priority 2011, dated 2017):
# Tests used:
# [1] = Dynamic Vapor Sorption (moisture sorption); type: physicochemical; conditions: 95% RH, room temperature
# Experimental: Dynamic Vapor Sorption (DVS): Hygroscopicity was determined on a Surface Measurement Systems DVS. Typically, a sample of about 2-10 mg was loaded into the DVS instrument sample pan. The sample was analyzed on a DVS automated sorption analyzer at room temperature. The relative humidity was increased from 0 to 95% RH at 10% RH step, then at 95% RH. The relative humidity was then decreased in a similar manner to accomplish a full adsorption/desorption cycle.
# [2] = Grinding studies, solid form by XRPD; type: physicochemical
# Experimental: Grinding Studies: Grinding experiments were performed using a Wig-L-Bug shaker. About 50 mg of Compound A hydrochloride was added to a polystyrene tube (1″×½″) with a Plexi bead (⅜″). The vial was capped and placed on the shaker for about 50 s. For wet grinding, drops of water were added to the vial and a wet paste was formed prior to placing on the shaker.
# X-ray Powder Diffraction (XRPD): XRPD analysis was conducted on a Thermo ARL X'TRA™ X-ray powder diffractometer using Cu Kα radiation at 1.54 Å. The instrument was equipped with a fine focus X-ray tube. The voltage and amperage of X-ray generator were set at 45 kV and 40 mA, respectively. The divergence slices were set at 4 mm and 2 mm and the measuring slices were set at 0.5 mm and 0.2 mm. Diffracted radiation was detected by a peltier-cooled Si(Li) solid-state detector. A theta-two theta continuous scan at 2.40°/min (0.5 sec/0.02° step) from 1.5°2θ to 40°2θ was used. A sintered alumina standard was used to check the peak position. In general, positions of XRPD peaks are expected to individually vary on a measurement-by-measurement basis by about +0.2°2θ. In general, as understood in the art, two XRPD patterns match one another if the characteristic peaks of the first pattern are located at approximately the same positions as the characteristic peaks of the second pattern. As understood in the art, determining whether two XRPD patterns match or whether individual peaks in two XRPD patterns match may require consideration of individual variables and parameters such as, but not limited to, preferred orientation, phase impurities, degree of crystallinity, particle size, variation in diffractometer instrument setup, variation in XRPD data collection parameters, and/or variation in XRPD data processing, among others. The determination of whether two patterns match may be performed by eye and/or by computer analysis.
compound,measurement,setting,value
"Cc1nc2cccc(N)c2c(=O)n1C1CCC(=O)NC1=O (stereo not shown) [Compound A, 3-(5-amino-2-methyl-4-oxo-4H-quinazolin-3-yl)-piperidine-2,6-dione]",Moisture Sorption at 95% RH,[1],3.19 wt %
"Cc1nc2cccc(N)c2c(=O)n1C1CCC(=O)NC1=O (stereo not shown) [Form A, 3-(5-amino-2-methyl-4-oxo-4H-quinazolin-3-yl)-piperidine-2,6-dione]",XRPD Result after grinding,[2]; Dry grinding,Form A1
same,XRPD Result after grinding,[2]; Wet grinding (paste),Form A1
"Cc1nc2cccc(N)c2c(=O)n1C1CCC(=O)NC1=O (stereo not shown) [Form C, 3-(5-amino-2-methyl-4-oxo-4H-quinazolin-3-yl)-piperidine-2,6-dione]",Moisture Sorption at 95% RH,[1]; listed as C,0.17 wt %
"Cc1nc2cccc(N)c2c(=O)n1C1CCC(=O)NC1=O (stereo not shown) [Form E, 3-(5-amino-2-methyl-4-oxo-4H-quinazolin-3-yl)-piperidine-2,6-dione]",Moisture Sorption at 95% RH,[1]; listed as E,0.26 wt %
"Cc1nc2cccc(N)c2c(=O)n1C1CCC(=O)NC1=O (stereo not shown) [Form B, 3-(5-amino-2-methyl-4-oxo-4H-quinazolin-3-yl)-piperidine-2,6-dione]",Moisture Sorption at 95% RH,[1]; listed as B,0.11 wt %
"Cc1nc2cccc(N)c2c(=O)n1C1CCC(=O)NC1=O (stereo not shown) [Form D, 3-(5-amino-2-methyl-4-oxo-4H-quinazolin-3-yl)-piperidine-2,6-dione]",Moisture Sorption at 95% RH,[1]; listed as D,4.11 wt %
